From ChEMBL document CHEMBL1127315, “Substituted O6-benzylguanine derivatives and their inactivation of human O6-alkylguanine-DNA alkyltransferase” (J Med Chem, 1994)
Calls of active or inactive are those of the source. The calls are words filed in the database; no cut-off is given here.

Legend:
[1] = target: T1, Methylated-DNA--protein-cysteine methyltransferase (Homo sapiens) (UniProt P16455); assay: Tested for the effective dose required to produce 50 percent inactivation of O6-alkylguanine-DNA alkyltransferase in HT-29 cell free extract; Inactive
T1 sequence (whole entry): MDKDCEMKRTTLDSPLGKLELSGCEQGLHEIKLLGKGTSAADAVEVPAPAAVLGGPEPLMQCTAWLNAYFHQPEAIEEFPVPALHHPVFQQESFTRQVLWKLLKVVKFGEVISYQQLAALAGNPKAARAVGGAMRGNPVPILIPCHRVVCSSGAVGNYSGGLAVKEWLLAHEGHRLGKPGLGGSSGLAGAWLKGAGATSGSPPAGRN

[2] = target: T1, Methylated-DNA--protein-cysteine methyltransferase (Homo sapiens); settings: HT-29
[3] = target: T1, Methylated-DNA--protein-cysteine methyltransferase (Homo sapiens); settings: HT-29; remark: listed apart in the source

For `Nc1nc(Oc2ccccc2)c2[nH]cnc2n1`, the ED50 [1] was “inactive”.

Molecule `CC12CCC(=O)C=C1CCC1C2CCC2(C)C(OC(=O)Cn3cnc4c(OCc5ccccc5)nc(N)nc43)CCC12` (stereo not given) has an ED50 [2] of 5000 nM and an ED50 [3] of 500 nM.

Molecule `C[C@]12CC[C@H]3[C@@H](CCC4CC(=O)CC[C@@]43C)[C@@H]1CC[C@@H]2OC(=O)Cn1cnc2c(OCc3ccccc3)nc(N)nc21` (stereo not given in full) has an ED50 [2] of 4000 nM and an ED50 [3] of 500 nM.
